Measured values published in patent publication US20170348376A1, “TUBULYSIN CONJUGATE FOR USE IN TREATING CANCER” (ENDOCYTE, INC., priority 2016, published 2017).
Where a name gives a salt, the structure may show the parent alone.

Tests used:
[1] = test system: primary human TNBC model ST738 tumors; experiment: Antitumor activity in TNBC ST738 model; type: in vivo, Balb/c nu/nu mice; conditions: Eribulin mesylate 1 mg/kg, once a week for two weeks (SIW×2); n=7
Procedure: (§1) These materials were obtained from and studies were performed at South Texas Accelerated Research Therapeutics, 4383 Medical Drive, San Antonio, Tex. 78229

[2] = test system: primary human TNBC model ST502 tumors; experiment: Antitumor activity in TNBC ST502 model; type: in vivo, Balb/c nu/nu mice; conditions: Eribulin mesylate 1 mg/kg, once a week for two weeks (SIW×2); n=7
Procedure: as §1

[3] = test system: primary human NSCLC model LU1147 tumors; experiment: Antitumor activity in Huprime NSCLC PDX tumor model LU1147; type: in vivo, Balb/c nu/nu mice; conditions: Docetaxel 15 mg/kg, one dose
Procedure: (§2) These studies were performed at Crown Bioscience (Beijing) Inc., Ground Floor, Light Muller Building, Changping Sector of Zhongguancun Scientific Park, No. 21 Huoju Road, Changping District, Beijing, P.R. China.

[4] = test system: primary human NSCLC model LU2505 tumors; experiment: Antitumor activity in Huprime NSCLC PDX tumor model LU2505; type: in vivo, Balb/c nu/nu mice; conditions: Docetaxel 15 mg/kg, one dose
Procedure: as §2

[5] = test system: primary human Ovarian model ST024 tumors; experiment: Antitumor activity in Ovarian ST024 model; type: in vivo, Balb/c nu/nu mice; conditions: Paclitaxel 15 mg/kg, once a week for two weeks (SIW×2); n=7
[6] = test system: primary human Endometrial model ST040 tumors; experiment: Antitumor activity in Endometrial ST040 model; type: in vivo, Balb/c nu/nu mice; conditions: Paclitaxel 15 mg/kg, once a week for two weeks (SIW×2); n=3
[7] = test system: FR-positive paclitaxel resistant KB-PR10 tumors; experiment: Antitumor activity on paclitaxel resistant KB-PR10 tumors; type: in vivo, nu/nu mice; conditions: paclitaxel 20 mg/kg, three times a week for two weeks (TIW×2), i.v.
Procedure: Four to six week-old female nu/nu mice (Harlan Sprague Dawley, Inc., Indianapolis, Ind.) were maintained on a standard 12 h light-dark cycle and fed ad libitum with folate-deficient chow (Harlan diet #TD00434, Harlan Teklad, Madison, Wis.) for the duration of the experiment. FR-positive paclitaxel resistant KB-PR10 cells were grown continuously as a monolayer, using folate-free RPMI medium (FFRPMI) containing 5% heat-inactivated fetal calf serum (HIFCS) at 37° C. in a 5% CO2/95% air-humidified atmosphere with no antibiotics. KB-PR10 cells (1×10^6 per nu/nu mouse) in 100 μL were injected in the subcutis of the dorsal medial area. […] Mice were treated with 20 mg/kg Paclitaxel, 2 μmol/kg EC145 (See WO2004/069159 for a description of EC145) or 1 μmol/kg Compound I on a three times a week for 2 weeks schedule when the tumors were approximately 100-145 mm^3, 101-129 mm^3 and 100-140 mm^3 in volume, respectively. The mice in the control groups received no treatment.

## C=C1C[C@@H]2CC[C@@]34C[C@H]5O[C@H]6[C@@H](O3)[C@H]3O[C@H](CC[C@@H]3O[C@H]6[C@H]5O4)CC(=O)C[C@@H]3[C@@H](OC)[C@@H](C[C@H](O)CN)O[C@H]3C[C@H]3O[C@@H](CC[C@@H]1O2)C[C@@H](C)C3=C [Eribulin mesylate]
[1]
  anti-tumor activity: some anti-tumor activity
[2]
  anti-tumor activity: minimal anti-tumor activity

## CC(=O)O[C@@]12CO[C@@H]1C[C@H](O)[C@@]1(C)C(=O)[C@H](O)C3=C(C)[C@@H](OC(=O)[C@H](O)[C@@H](NC(=O)OC(C)(C)C)c4ccccc4)C[C@@](O)([C@@H](OC(=O)c4ccccc4)[C@H]21)C3(C)C [Docetaxel]
[3]
  anti-tumor activity: minimal anti-tumor activity
[4]
  anti-tumor activity: some anti-tumor activity

## CC(=O)O[C@H]1C(=O)[C@@]2(C)[C@H]([C@H](OC(=O)c3ccccc3)[C@]3(O)C[C@H](OC(=O)[C@H](O)[C@@H](NC(=O)c4ccccc4)c4ccccc4)C(C)=C1C3(C)C)[C@]1(OC(C)=O)CO[C@@H]1C[C@@H]2O [Paclitaxel]
[5]
  anti-tumor activity: no anti-tumor activity
[6]
  anti-tumor activity: minimal anti-tumor activity
[7]
  anti-tumor activity: little to no anti-tumor activity
  partial responses: 0
